Entries after “also recorded” stand apart in the source; their conditions may differ.
Test system: Fischer 344 rats
Test: Five daily dose rat toxicity study
Format: in vivo
Settings: for toxicity summary, rats: five daily doses i.v. (X5)
Protocol: Preclinical toxicity studies of BIDA were completed in CD2F1 Mice, Fischer 344 rats and beagle dogs (4). The animals were injected IV with a single bolus or daily for five days.
A preclinical toxicology study of benzisoquinolinedione (NSC-308847) was done at Springborn Institute for Bioresearch, Inc. using CD2 F1 mice, Fischer 344 rats and beagle dogs. Animals were injected intravenously on a single dose (X1) or five daily dose (X5) regimen. Bulk drug was titrated with 0.5N HCl to form a salt solution of benzisoquinolinedione at a pH of 5.0-6.5. Sterile 0.9% saline was used for diluting the dosing solutions and was used for the vehicle control animals.
The following summarizes the major organ toxicities resulting from IV administration of benzisoquinolinedione to rats.

[1] = 12.0 mg/kg/day, listed as benzisoquinolinedione
[2] = 24.0 mg/kg/day, females, day 8-9
[3] = 24.0 mg/kg/day, listed as benzisoquinolinedione

CN(C)CCN1C(=O)c2cccc3cc(N)cc(c23)C1=O [Example 9, 1H-Benz[de]isoquinoline-1,3(2H)-dione, 5-amino-2-[2-(dimethylamino)ethyl]]
Hematologic findings (6.0 mg/kg, listed as benzisoquinolinedione): Female rats showed moderate increases in reticulocytes on days 15 and 22, followed by a moderate decrease on day 36; also recorded: The males were not affected | Mortality / lethality (12.0 mg/kg/day (MELD10)): 0/20 | Reproductive findings (12.0 mg/kg/day, day 36, listed as benzisoquinolinedione): slight decrease in testicular weight on day 36; also recorded: moderate testicular atrophy in all males | mild to moderate diffuse bone marrow atrophy, incidence (12.0 mg/kg/day, females, day 8): 4/5 | Hematologic findings [1]: Slight decreases in hemoglobin, hematocrit and red blood cells were seen in female rats on day 8; also recorded: moderate reticulocytopenia; also recorded: male rats had a mild increase in reticulocytes on day 22; also recorded: Females had slight to mild leukocytosis on days 15 and 22; also recorded: The males had a moderate increase in WBC only on day 15; also recorded: No microscopic lesions were seen on day 36 in either sex | Integumentary findings [1]: dry yellowish-white scaly tails; also recorded: microscopic evaluation did not show any tail lesions | mild thymic atrophy, incidence (12.0 mg/kg/day, males, day 8): 1/5 | mild to moderate diffuse bone marrow atrophy, incidence (12.0 mg/kg/day, males, day 8): 4/5 | Mortality / lethality (24.0 mg/kg/day (2XMELD10), listed as benzisoquinolinedione): 5/20 and Two females were found dead and three females were sacrificed | marked testicular atrophy, incidence (24.0 mg/kg/day, day 36): 2/5 | moderate testicular atrophy, incidence (24.0 mg/kg/day, day 36): 2/5 | severe testicular atrophy, incidence (24.0 mg/kg/day, day 36): 1/5 | moderate to marked spleen atrophy, incidence (24.0 mg/kg/day, females): 3/10 | marked jejunal epithelial degeneration, incidence (24.0 mg/kg/day, females, day 8): 5/10 | marked necrosis of mesenteric lymph node, incidence (24.0 mg/kg/day, females, day 8): 1/10 | mild atrophy of mesenteric lymph node, incidence (24.0 mg/kg/day, females, day 8): 1/10 | mild to marked duodenal epithelial degeneration, incidence (24.0 mg/kg/day, females, day 8): 5/10 | mild to marked duodenal epithelial necrosis, incidence (24.0 mg/kg/day, females, day 8): 7/10 | mild to marked ileal epithelial necrosis, incidence (24.0 mg/kg/day, females, day 8): 10/10 | mild to marked jejunal epithelial necrosis, incidence (24.0 mg/kg/day, females, day 8): 9/10 | mild to severe colonic epithelial necrosis, incidence (24.0 mg/kg/day, females, day 8): 3/10 | moderate to marked ileal epithelial degeneration, incidence (24.0 mg/kg/day, females, day 8): 5/10 | marked to severe bone marrow atrophy, incidence [2]: 10/10 | marked to severe thymic atrophy, incidence [2]: 9/10 | Hepatic findings (24.0 mg/kg/day, females, day 9): multifocal liver necrosis in two females | Gastrointestinal findings [3]: Diarrhea was observed on days 6 to 10 in males and days 6 to termination (day 8 or 9) in females; also recorded: mild to marked epithelial degeneration and necrosis of the duodenum, jejunum and ileum of both sexes; also recorded: No lesions were seen in long-term males; also recorded: emaciation (days 7-12) and dehydration (days 9-12) | Hematologic findings [3]: Mild increases in hemoglobin, hematocrit and red blood cells were seen in male rats on day 8; also recorded: moderate to slight decreases in these parameters on days 15 and 22; also recorded: No reticulocytes were observable in either sex on day 8; also recorded: marked decreases being seen on day 8, followed by moderate to marked increases above baselines on days 15 and 22; also recorded: mild thrombocytosis | Reproductive findings [3]: All five males showed decreased testicular weights on day 36; also recorded: No reproductive lesions were seen on day 8 in males or females | marked jejunal epithelial degeneration, incidence (24.0 mg/kg/day, males, day 8): 4/5 | marked to severe bone marrow atrophy, incidence (24.0 mg/kg/day, males, day 8): 5/5 | marked to severe thymic atrophy, incidence (24.0 mg/kg/day, males, day 8): 3/5 | mild necrosis of the hair bulb, incidence (24.0 mg/kg/day, males, day 8): 2/5 | mild to marked duodenal epithelial degeneration, incidence (24.0 mg/kg/day, males, day 8): 4/5 | mild to marked duodenal epithelial necrosis, incidence (24.0 mg/kg/day, males, day 8): 5/5 | mild to marked ileal epithelial necrosis, incidence (24.0 mg/kg/day, males, day 8): 4/5 | mild to marked jejunal epithelial necrosis, incidence (24.0 mg/kg/day, males, day 8): 4/5 | moderate to marked ileal epithelial degeneration, incidence (24.0 mg/kg/day, males, day 8): 4/5 | depression of group mean body weights (24.0 mg/kg/day, males, day 26 as printed): 31 | body weight loss at termination (24.0 mg/kg/day, males, day 36): 31 | moderate bone marrow atrophy, incidence (24.0 mg/kg/day, males, day 36): 1/5 | moderate to marked hyperkeratosis, incidence (24.0 mg/kg/day, males, day 36): 4/5 | moderate to severe thymic atrophy, incidence (24.0 mg/kg/day, males, day 36): 2/5 | depression of group mean body weights (24.0 mg/kg/day, males, days 15 and 22): 26 | Tail (integumentary) findings (24.0 mg/kg/day, males, listed as benzisoquinolinedione): the tail skin was friable and sloughing in males; also recorded: severe tail necrosis in all five males | Deaths, females (2XMELD10, X5): one-half of the females | toxicity summary, rats (listed as BIDA): reproductive system toxicity was seen at doses of MELD 10 and higher | toxicity summary, rats (listed as benzisoquinolinedione): toxic on both schedules (X1, X5) to the hematopoietic system and to the male reproductive system; also recorded: gastrointestinal, tail lesions and possibly hepatotoxicity; also recorded: Toxicity to the testes and tails was delayed and had not reversed by day 36

Source: patent US5183821A, “Method for treating leukemias using N-(2-dimethylaminoethyl)-3-amino-1,8-naphthalimide for treating leukemias and solid tumors” (priority 1991, dated 1993)
